Data on seven molecules can be found in patent publication US6593374B2, “Tubulin binding ligands and corresponding prodrug constructs” (Baylor University, priority 2000, dated 2003).

SMILES strings stand for the structures. Converted amounts (≈) assume the structure as drawn. Read-outs that look alike come from different tables or passages of the source.

Data set [1] has as its system tumor vasculature. The note with it: cited from earlier work.
In data set [2] the test system is purified tubulin. The note with it: previously described compounds; cited from earlier work.
The conditions of data set [3]: cited from earlier work.
Data set [4] relates to T1, purified tubulin.
T1 construct: other: purified bovine brain tubulin 1.5 mg/ml, 15 min preincubati
Description: Inhibition of tubulin polymerization assay. Type of data set: biochemical, bovine. The note with it: for IC50: read-out: IC50, in vitro inhibition of tubulin polymerization, purified bovine brain tubulin 1.5 mg/ml, 15 min preincubation at 37° C., GTP-induced, 350 nm. As for the experimental part:
After the incubation period, the reaction was cooled and GTP was added to induce tubulin polymerization. Polymerization was then monitored in a Gilford spectrophotometer at 350 nm. The final reaction mixtures (0.25 ml) contained 1.5 mg/ml tubulin, 0.6 mg/ml microtubule-associated proteins (MAPs), 0.5 mM GTP, 0.5 mM MgCl2, 4% DMSO and 0.1M 4-morpholineethanesulfonate buffer (MES, pH 6.4).

Data set [5] deals with NCI 60 cell line panel. Kind of data set: NCI 60 cell line panel. It is filed as cell-based. The note with it: Homo sapiens.
Data set [6] concerns human cancer cells. Description: Cytotoxicity against human cancer cells. It is filed as cell-based.
Data set [7] deals with SF-295. Kind of data set: Growth inhibition, human cancer cell line SF-295 (SRB). To be noted: CNS, 48 hours. It is filed as cell-based. As for the experimental part: (§1) Several of the compounds described in this application were evaluated in terms of growth inhibitory activity against several human cancer cell lines, including pancreas, breast, CNS, lung-NSC, colon, and prostate lines. The assay used is described in Monks et al.^32 Briefly, the cell suspensions, diluted according to the particular cell type and the expected target cell density (5,000-40,000 cells per well based on cell growth characteristics), were added by pipet (100 μl) to 96-well microtiter plates. Inoculates were allowed a preincubation time of 24-28 hours at 37° C. for stabilization. Incubation with the inhibitor compounds lasted for 48 hours in 5% CO2 atmosphere and 100% humidity. Determination of cell growth was done by in situ fixation of cells, followed by staining with a protein-binding dye, sulforhodamine B (SRB), which binds to the basic amino acids of cellular macromolecules. The solubilized stain was measured spectrophotometrically.

In data set [8] the test system is BXPC-3. Kind of data set: Growth inhibition, human cancer cell line BXPC-3 (SRB). The note with it: Pancreas-a, 48 hours. Type of data set: cell-based. As to the method:
as §1

Data set [9] relates to NCI-H460. Kind of data set: Growth inhibition, human cancer cell line NCI-H460 (SRB). It is filed as cell-based. The note with it: Lung-NSC, 48 hours. As for the experimental part:
as §1

In data set [10] the test system is MCF-7. Description: Growth inhibition, human cancer cell line MCF-7 (SRB). Type of data set: cell-based. To be noted: 48 hours. As to the method: as §1
Data set [11] deals with KM20L2. Description: Growth inhibition, human cancer cell line KM20L2 (SRB). To be noted: 48 hours. Type of data set: cell-based. As for the experimental part:
as §1

In data set [12] the test system is DU-145. Kind of data set: Growth inhibition, human cancer cell line DU-145 (SRB). Type of data set: cell-based. The note with it: Prostate, 48 hours. As for the experimental part:
as §1

The subject of data set [13] is MHEC. Description: In vivo tumor growth control in scid mice after MHEC inoculation. To be noted: female scid mice, single dose ip 400 mg/kg, one week after MHEC inoculation (1×10^6/mouse). As for the experimental part:
Female scid mice were single dose ip administered with CA-4P, and benzo[b]thiophene phosphate prodrug at 400 mg/kg (i.e., MDT of CA-4P) after one week of MHEC inoculation (1×10^6/mouse) (FIG. 20). Studies were carried out through a collaboration with professors Ronald W. Pero and Klaus Edvardsen, University of Lund, Sweden

Data set [14] relates to SF-268. Kind of data set: Growth inhibition, human cancer cell line SF-268 (SRB). Type of data set: cell-based. The note with it: CNS Gliobl, 48 hours. As to the method:
as §1

In data set [15] the test system is P388 leukemia cells. Kind of data set: Cytotoxicity assay with P388 leukemia cells. Type of data set: cell-based.
The test system of data set [16] is OVCAR-3. Kind of data set: Growth inhibition, human cancer cell line OVCAR-3 (SRB). Type of data set: cell-based. The note with it: Ovarian, 48 hours. As for the experimental part:
as §1

Data set [17] concerns FADU. Kind of data set: Growth inhibition, human cancer cell line FADU (SRB). Type of data set: cell-based. To be noted: Pharynx-sqam, 48 hours. As for the experimental part: as §1
Setting [18] is: Homo sapiens, MCF7, Breast adn, read-out: GI50.
Where [19] appears, read: Homo sapiens, KM-20L2, Colon, read-out: GI50.

`COc1ccc(/C=C\c2cc(OC)c(OC)c(OC)c2)cc1OP(=O)([O-])[O-].[Na+].[Na+]` [CSA-4 prodrug]: in [1], the “destruction of tumor vasculature (in words)” value is on record as “very active in terms of tumor vasculature destruction”.

Take `COc1ccc(/C=C\c2cc(OC)c(OC)c(OC)c2)cc1O` [Combretastatin A-4]: the “inhibition of tubulin polymerization (in words)” value (shortened to “inhibition”) in data set [2] is on record as “potent inhibitor of tubulin polymerization”. Also, in data set [1], the “destruction of tumor vasculature (in words)” value is reported as “does not demonstrate destruction of tumor vasculature”. Also, the “water solubility (in words)” value in [3] was “poor water solubility”.

`COc1ccc2scc(OC)c2c1OC` [Compound 1, 3,4,5-trimethoxybenzo[b]thiophene]: the “inhibition” value in data set [4] is “inhibition of tubulin polymerization”. This molecule showed a concentration for 50% growth inhibition (GI50) in data set [5] of 263 nM. The “cytotoxicity (in words)” value in [6] is reported as “potent cytotoxicity”.

For `COc1ccc2c(C(=O)c3cc(OC)c(OC)c(OC)c3)c(-c3ccc(OC)c(OP(=O)([O-])[O-])c3)sc2c1.[Na+].[Na+]` [Compound 3, 3-(3′,4′,5′-trimethoxybenzoyl)-2-(3′-sodiumphosphate-4′-methoxyphenyl)-6-methoxybenzo[b]thiophene], the half-inhibitory concentration (IC50) in data set [4] was 1 to 4 µM. The concentration for 50% growth inhibition (GI50) in [7] was 0.11 µg/mL; in data set [8], 0.35 µg/mL; in [9] it was 0.035 µg/mL; in [10] (Breast adn), 0.028 µg/mL; in data set [11] (Colon), 0.22 µg/mL; in [12], 0.045 µg/mL. In [13], the “tumor growth control (FIG. 20)” value is reported as “remarkable activity in terms of tumor growth control”.

Turning to `COc1ccc2c(c1)CCCC2(O)c1cc(OC)c(OC)c(OC)c1` (stereo not drawn) [Compound 14A], the IC50 in [4] fell in the range of 1 to 4 µM. The 50% growth inhibitory concentration (GI50) in data set [8] (Homo sapiens, read-out: GI50) was 0.13 µg/mL (≈ 0.377 µM); in [9] (Homo sapiens, read-out: GI50) it was 0.16 µg/mL (≈ 0.465 µM); in [10] (setting [18]), 0.043 µg/mL (≈ 0.125 µM); in data set [11] (setting [19]), 0.11 µg/mL (≈ 0.319 µM); in data set [12] (Homo sapiens, read-out: GI50), 0.38 µg/mL (≈ 1.1 µM); in data set [14], 0.67 µg/mL (≈ 1.95 µM).

For `CCOP(=O)(Nc1c(OC)ccc2c1CCC=C2c1cc(OC)c(OC)c(OC)c1)OCC` [Compound 16, 6-methoxy-1-(3′,4′,5′-trimethoxyphenyl)-5-diethylphosphoramidate-3,4-dihydronaphthalene], the IC50 in data set [4] is over 40 µM. Besides, the “ED50 (effective dosage required to inhibit 50% of cell growth)” value in data set [15] is 20.4 µg/mL. The 50% growth inhibitory concentration (GI50) in [7] (Homo sapiens, read-out: GI50) was determined as 2.2 µg/mL (≈ 4.61 µM); in data set [8] (Homo sapiens, read-out: GI50), 2 µg/mL (≈ 4.19 µM); in data set [9] (Homo sapiens, read-out: GI50), 3.4 µg/mL (≈ 7.12 µM); in [10] (setting [18]), 3 µg/mL (≈ 6.28 µM); in [11] (setting [19]), 2.5 µg/mL (≈ 5.24 µM); in [12] (Homo sapiens, read-out: GI50), 2.8 µg/mL (≈ 5.86 µM).

Turning to `C#CC=CC#CC(=O)c1cc(OC)c(OC)c(OC)c1` [Compound 30, 1-(3,4,5-trimethoxybenzoyl)-(Z)-3-ene-1,5-hexadiyne], the “inhibition” value in data set [4] is reported as “excellent inhibition of tubulin polymerization”. In data set [4], the IC50 was 2 to 4 µM. For the same molecule, the concentration for 50% growth inhibition (GI50) in data set [7] (Homo sapiens, read-out: GI50) amounted to 1.7 µg/mL (≈ 6.29 µM); in [8] (Homo sapiens, read-out: GI50), 1.4 µg/mL (≈ 5.18 µM); in [9] (Homo sapiens, read-out: GI50), 1.7 µg/mL (≈ 6.29 µM); in [12] (Homo sapiens, read-out: GI50), 0.54 µg/mL (≈ 2 µM); in [16], 0.53 µg/mL (≈ 1.96 µM); in data set [17], 0.95 µg/mL (≈ 3.51 µM). The “cytotoxicity (in words)” value in data set [6] is listed as “strong cytotoxicity”.
